Assay results published in ChEMBL document CHEMBL3045433, “Induction of Resistance against Rice Bacterial Leaf Blight by 3-Chloro-1-methyl-1H-pyrazole-5-carboxylic Acid” (2005).
The source made the active and inactive calls. No cut-off for these calls is given here.

Legend:
Oryza sativa [1] = experiment: Induction of PBZ1 gene expression in three-leaf stage of Oryza sativa (rice) plant leaf after 5 days by Northern blot analysis; assay type: functional, organism-based
Oryza sativa [2] = experiment: Induction of disease resistant in three-leaf stage of Oryza sativa (rice) plant against Xanthomonas oryzae pv. oryzae-induced leaf blight at 0.05 to 5 mg/pot after 7 days; assay type: functional, organism-based
Oryza sativa [3] = experiment: Induction of disease resistant in three-leaf stage of Oryza sativa (rice) plant against Xanthomonas oryzae pv. oryzae-induced leaf blight at 0.05 to 0.5 mg/pot after 7 days; assay type: functional, organism-based
Oryza sativa [4] = experiment: Induction of disease resistant in three-leaf stage of Oryza sativa (rice) plant against Xanthomonas oryzae pv. oryzae-induced leaf blight after 7 days; assay type: functional, organism-based
Oryza sativa [5] = experiment: Induction of disease resistant in three-leaf stage of Oryza sativa (rice) plant against Xanthomonas oryzae pv. oryzae-induced leaf blight at 5 mg/pot after 7 days; assay type: functional
[6] = system: Xanthomonas oryzae pv. oryzae; experiment: Antibacterial activity against Xanthomonas oryzae pv. oryzae up to 1 mg/ml after 48 hr; assay type: functional, organism-based

| Compound | Activity (Oryza sativa [1]) | Activity (Oryza sativa [2]) | Activity (Oryza sativa [3]) | Activity (Oryza sativa [4]) | Activity (Oryza sativa [5]) [%] | Activity [6] |
| --- | --- | --- | --- | --- | --- | --- |
| C=CCOC1=NS(=O)(=O)c2ccccc21 | Dose-dependent effect | Active |  |  |  |  |
| N#CCNC(=O)c1ccnc(Cl)c1 | Dose-dependent effect |  |  |  |  |  |
| CSC(=O)c1cccc2nnsc12 | Dose-dependent effect | Active |  |  |  |  |
| Cn1nc(Cl)cc1C(=O)O [3-CHLORO-1-METHYL-1H-PYRAZOLE-5-CARBOXYLIC ACID] | Dose-dependent effect |  | Active | Dose-dependent effect | 99.5 | inactive |
